Values joined by “and” are separate entries in the source; they are usually repeats but may differ in a detail not shown here. Equal values may be shown once.

Results on three compounds are retold here after paper PMC4774911, “Biochemical Screening of Five Protein Kinases from Plasmodium falciparum against 14,000 Cell-Active Compounds” (PLoS ONE, 2016).

Targets include MARK2 (Homo sapiens, UniProt Q7KZI7); PRKCQ (Homo sapiens, UniProt Q04759); SIK2 (Homo sapiens, UniProt Q9H0K1); MAP3K11 (Homo sapiens, UniProt Q16584); CLK1 (Homo sapiens, UniProt P49759); CSNK1D (Homo sapiens, UniProt P48730); MAP4K4 (Homo sapiens, UniProt O95819).
Assay in all cases: biochemical
Common to all, as to design: endogenous in cells; host or cells: K562 cell extract; species or system K562 (extract); replicate k of n = 2 (each experiment ID is one independent experiment; two experiment IDs per compound)
What all share (conditions): read-out: KDapp

Another assay deals with T1, MAP2K5 (Homo sapiens, UniProt Q13163).
T1 sequence (Q13163 1-448): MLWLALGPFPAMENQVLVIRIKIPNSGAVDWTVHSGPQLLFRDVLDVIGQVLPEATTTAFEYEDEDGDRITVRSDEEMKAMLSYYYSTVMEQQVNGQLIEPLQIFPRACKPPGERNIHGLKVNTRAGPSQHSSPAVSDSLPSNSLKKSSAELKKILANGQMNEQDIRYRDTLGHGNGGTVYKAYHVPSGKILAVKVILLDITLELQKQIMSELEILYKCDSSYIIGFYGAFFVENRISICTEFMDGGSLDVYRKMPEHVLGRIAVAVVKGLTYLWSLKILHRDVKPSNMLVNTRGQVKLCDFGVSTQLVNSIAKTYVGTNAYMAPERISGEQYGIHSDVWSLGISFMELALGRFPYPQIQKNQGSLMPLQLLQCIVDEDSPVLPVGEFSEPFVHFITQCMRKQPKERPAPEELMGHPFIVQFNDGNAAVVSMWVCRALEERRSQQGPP

Another assay has as its target T2, ITK (Homo sapiens, UniProt Q08881).
T2 sequence (Q08881 1-620): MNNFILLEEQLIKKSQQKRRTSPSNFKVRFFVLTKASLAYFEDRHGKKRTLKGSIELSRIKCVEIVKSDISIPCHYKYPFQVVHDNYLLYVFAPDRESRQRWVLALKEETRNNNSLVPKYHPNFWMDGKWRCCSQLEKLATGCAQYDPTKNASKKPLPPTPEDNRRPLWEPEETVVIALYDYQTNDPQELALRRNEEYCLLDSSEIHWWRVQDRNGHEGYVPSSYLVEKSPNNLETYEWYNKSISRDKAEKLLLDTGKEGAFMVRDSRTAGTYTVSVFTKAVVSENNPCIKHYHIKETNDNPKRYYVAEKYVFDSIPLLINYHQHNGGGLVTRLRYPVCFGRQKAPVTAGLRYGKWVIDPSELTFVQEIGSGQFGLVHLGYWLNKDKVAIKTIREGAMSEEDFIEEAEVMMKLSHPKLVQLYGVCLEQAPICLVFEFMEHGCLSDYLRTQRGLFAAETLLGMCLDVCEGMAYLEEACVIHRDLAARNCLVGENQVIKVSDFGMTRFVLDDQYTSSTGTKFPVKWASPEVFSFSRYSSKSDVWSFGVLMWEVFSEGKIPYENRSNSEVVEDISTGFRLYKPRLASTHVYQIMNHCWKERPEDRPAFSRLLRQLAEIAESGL

Another assay has as its target T3, PIP4K2B (Homo sapiens, UniProt P78356).
T3 sequence (P78356 1-416): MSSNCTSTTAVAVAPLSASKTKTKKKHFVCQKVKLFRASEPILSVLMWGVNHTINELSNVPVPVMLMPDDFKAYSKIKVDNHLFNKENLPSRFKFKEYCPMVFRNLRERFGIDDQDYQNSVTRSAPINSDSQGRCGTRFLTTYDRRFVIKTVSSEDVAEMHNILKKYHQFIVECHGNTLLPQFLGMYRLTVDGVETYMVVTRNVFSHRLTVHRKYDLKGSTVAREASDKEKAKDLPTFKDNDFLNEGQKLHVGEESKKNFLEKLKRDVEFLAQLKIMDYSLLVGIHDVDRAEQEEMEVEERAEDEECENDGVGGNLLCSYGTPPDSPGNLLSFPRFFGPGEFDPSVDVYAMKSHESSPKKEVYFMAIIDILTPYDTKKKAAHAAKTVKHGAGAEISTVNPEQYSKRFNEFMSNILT

MAP3K11, sequence (Q16584 whole entry): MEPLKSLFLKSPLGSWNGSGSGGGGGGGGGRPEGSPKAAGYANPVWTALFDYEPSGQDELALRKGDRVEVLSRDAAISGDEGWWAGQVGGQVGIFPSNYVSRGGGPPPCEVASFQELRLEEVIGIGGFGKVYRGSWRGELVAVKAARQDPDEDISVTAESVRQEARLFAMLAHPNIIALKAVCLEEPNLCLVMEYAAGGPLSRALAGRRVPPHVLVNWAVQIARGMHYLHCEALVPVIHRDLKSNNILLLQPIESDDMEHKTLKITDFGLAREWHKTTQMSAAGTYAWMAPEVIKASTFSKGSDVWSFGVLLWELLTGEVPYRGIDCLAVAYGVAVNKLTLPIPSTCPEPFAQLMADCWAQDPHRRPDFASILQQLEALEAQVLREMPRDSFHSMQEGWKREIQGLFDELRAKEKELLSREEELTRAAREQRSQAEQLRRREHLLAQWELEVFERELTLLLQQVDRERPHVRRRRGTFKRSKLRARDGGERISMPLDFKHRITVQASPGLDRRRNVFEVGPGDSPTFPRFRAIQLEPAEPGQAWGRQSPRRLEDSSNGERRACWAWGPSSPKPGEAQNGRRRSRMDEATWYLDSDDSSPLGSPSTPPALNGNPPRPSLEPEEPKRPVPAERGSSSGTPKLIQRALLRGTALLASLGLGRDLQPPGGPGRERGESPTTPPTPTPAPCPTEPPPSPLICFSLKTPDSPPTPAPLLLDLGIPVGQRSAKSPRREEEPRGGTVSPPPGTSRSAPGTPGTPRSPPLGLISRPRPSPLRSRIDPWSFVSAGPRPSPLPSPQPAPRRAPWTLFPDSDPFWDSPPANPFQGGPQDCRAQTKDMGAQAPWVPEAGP
CLK1, sequence (P49759 whole entry): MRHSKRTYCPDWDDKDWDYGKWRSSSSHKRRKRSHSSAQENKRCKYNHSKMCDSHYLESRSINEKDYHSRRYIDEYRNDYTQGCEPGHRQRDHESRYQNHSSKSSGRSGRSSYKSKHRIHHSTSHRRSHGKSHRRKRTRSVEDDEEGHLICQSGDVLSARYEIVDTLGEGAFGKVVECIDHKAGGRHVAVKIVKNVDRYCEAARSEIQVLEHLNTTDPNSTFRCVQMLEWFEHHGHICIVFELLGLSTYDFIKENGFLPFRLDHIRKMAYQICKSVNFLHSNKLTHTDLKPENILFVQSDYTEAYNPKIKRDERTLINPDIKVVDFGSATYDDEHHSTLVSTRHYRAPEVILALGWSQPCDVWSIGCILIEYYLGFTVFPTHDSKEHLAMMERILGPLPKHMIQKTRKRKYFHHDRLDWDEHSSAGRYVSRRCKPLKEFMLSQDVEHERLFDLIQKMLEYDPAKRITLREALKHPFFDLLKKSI
MARK2, sequence (Q7KZI7 whole entry): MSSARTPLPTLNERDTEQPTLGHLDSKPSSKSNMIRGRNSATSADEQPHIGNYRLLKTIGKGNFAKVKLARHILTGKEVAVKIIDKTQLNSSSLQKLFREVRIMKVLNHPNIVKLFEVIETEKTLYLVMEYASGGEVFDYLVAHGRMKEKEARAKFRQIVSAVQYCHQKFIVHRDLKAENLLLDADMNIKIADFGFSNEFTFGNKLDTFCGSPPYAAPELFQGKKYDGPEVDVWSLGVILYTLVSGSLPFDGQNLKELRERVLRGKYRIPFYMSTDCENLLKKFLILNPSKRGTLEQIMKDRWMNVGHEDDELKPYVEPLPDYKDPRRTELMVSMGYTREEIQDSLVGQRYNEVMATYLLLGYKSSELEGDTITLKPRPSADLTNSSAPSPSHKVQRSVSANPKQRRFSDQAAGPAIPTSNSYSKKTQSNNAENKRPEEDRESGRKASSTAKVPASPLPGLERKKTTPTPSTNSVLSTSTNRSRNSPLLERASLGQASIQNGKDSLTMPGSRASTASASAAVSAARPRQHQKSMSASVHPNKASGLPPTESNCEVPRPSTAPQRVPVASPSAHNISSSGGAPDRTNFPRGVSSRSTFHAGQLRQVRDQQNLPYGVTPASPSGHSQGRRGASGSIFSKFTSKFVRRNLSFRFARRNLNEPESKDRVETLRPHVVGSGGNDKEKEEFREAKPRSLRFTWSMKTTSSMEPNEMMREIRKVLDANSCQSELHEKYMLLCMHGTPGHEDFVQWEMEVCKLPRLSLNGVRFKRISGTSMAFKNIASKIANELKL
PRKCQ, sequence (Q04759 whole entry): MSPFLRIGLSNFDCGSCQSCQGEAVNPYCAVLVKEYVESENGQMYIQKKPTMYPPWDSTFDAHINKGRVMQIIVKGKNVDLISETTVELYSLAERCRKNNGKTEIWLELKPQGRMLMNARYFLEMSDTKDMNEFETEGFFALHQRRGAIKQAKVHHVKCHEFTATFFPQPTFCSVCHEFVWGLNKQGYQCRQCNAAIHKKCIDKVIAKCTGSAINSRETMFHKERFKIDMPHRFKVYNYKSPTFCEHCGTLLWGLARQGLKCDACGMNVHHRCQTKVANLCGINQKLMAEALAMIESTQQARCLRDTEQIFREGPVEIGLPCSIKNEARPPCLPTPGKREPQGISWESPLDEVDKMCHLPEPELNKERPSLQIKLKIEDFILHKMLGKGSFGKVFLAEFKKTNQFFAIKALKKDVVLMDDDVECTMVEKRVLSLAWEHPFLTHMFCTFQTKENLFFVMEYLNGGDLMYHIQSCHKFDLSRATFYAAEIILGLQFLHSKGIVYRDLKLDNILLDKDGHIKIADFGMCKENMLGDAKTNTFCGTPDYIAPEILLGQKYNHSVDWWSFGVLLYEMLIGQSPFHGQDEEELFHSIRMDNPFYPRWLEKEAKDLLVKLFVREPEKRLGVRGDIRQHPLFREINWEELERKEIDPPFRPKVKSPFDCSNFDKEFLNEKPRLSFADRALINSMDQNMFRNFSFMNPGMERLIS
SIK2, sequence (Q9H0K1 whole entry): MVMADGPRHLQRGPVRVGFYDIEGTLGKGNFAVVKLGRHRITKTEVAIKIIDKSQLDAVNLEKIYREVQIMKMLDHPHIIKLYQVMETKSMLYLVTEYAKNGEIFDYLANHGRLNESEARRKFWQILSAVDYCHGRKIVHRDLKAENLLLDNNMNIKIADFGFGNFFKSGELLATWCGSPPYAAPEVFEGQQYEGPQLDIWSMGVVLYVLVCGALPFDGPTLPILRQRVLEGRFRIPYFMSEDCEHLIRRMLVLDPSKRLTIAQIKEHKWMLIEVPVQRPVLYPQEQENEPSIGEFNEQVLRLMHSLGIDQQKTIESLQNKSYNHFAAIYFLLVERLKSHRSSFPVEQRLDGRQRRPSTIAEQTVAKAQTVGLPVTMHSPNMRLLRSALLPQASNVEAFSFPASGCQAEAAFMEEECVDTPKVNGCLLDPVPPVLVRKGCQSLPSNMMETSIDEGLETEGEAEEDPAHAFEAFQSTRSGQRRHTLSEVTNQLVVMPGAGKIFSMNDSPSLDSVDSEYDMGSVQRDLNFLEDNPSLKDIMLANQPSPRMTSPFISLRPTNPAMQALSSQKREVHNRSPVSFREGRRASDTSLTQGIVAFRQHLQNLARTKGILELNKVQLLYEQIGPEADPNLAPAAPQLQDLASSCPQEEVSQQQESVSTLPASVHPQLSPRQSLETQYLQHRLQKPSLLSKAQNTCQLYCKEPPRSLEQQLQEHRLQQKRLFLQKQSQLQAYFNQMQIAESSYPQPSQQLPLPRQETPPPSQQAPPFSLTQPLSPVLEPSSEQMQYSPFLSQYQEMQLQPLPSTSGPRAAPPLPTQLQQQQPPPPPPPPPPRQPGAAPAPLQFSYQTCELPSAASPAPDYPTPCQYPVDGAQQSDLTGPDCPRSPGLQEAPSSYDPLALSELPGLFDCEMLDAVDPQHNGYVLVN
CSNK1D, sequence (P48730 whole entry): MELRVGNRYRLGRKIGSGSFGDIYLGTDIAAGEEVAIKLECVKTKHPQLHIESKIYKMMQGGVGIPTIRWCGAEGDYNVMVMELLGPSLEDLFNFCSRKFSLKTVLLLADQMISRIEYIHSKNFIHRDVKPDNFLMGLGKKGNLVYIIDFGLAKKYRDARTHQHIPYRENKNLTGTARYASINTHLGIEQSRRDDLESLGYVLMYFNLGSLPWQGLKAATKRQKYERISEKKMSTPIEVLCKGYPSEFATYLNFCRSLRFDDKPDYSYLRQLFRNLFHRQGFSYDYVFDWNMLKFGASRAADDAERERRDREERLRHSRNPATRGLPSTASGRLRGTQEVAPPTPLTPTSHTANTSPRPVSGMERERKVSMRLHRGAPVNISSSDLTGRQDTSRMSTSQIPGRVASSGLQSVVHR

Turning to `CN1CCN(c2ccc(Nc3ncc(C#N)c(Nc4ccccc4C(N)=O)n3)cc2)CC1.Cl` [TCMDC-134116], the Kd on MARK2 is 121 nM and 115 nM; at MAP2K5 it was 218 nM and 283 nM; at PRKCQ, 858 nM and 650 nM; at ITK, 38.7 nM; at SIK2, 10.6 nM; at MAP3K11, 46.3 nM. Moreover, the Kd at CLK1 is 20.7 nM and 21.1 nM; at CSNK1D, 1150 nM; at PIP4K2B, 1130 nM and 705 nM.
As to `Cl.NCC1(c2nc(-c3ccc(Cl)c(O)c3)c(-c3ccncc3)[nH]2)CCCCC1` [TCMDC-141154], the Kd at MAP4K4 was 850 nM and 539 nM; at MAP2K5 it was 479 nM; at PRKCQ it was 786 nM and 1000 nM; on SIK2, 173 nM and 161 nM; at CSNK1D, 44 nM and 50.4 nM.
For the compound `CN(C)CC(O)COc1ccc(Nc2ncc([N+](=O)[O-])c(Nc3ccccc3O)n2)cc1.O=C(O)C(F)(F)F` (centres unmarked) [TCMDC-141399], the Kd at MARK2 is 3510 nM; at MAP4K4, 1020 nM and 680 nM; at ITK, 470 nM; at MAP3K11, 728 nM and 328 nM; at CLK1, 171 nM and 119 nM; at PIP4K2B it was 684 nM and 987 nM.
